Data from patent US20220378791A1, “JAK1 INHIBITORS FOR THE TREATMENT OF MYELODYSPLASTIC SYNDROMES” (Incyte Corporation, priority 2014, published 2022).

What was measured:
[1] = target: T1, human JAK1 (a.a. 837-1142) (Homo sapiens, UniProt P23458); test: In vitro JAK kinase assay (HTRF), JAK1; format: biochemical; conditions: 1 mM ATP
T1 construct: human JAK1 (a.a. 837-1142); His tag (N); made in house; host or cells: insect cells (baculovirus)
Protocol: Compounds herein were tested for inhibitory activity of JAK targets according to the following in vitro assay described in Park et al., Analytical Biochemistry 1999, 269, 94-104. The catalytic domains of human JAK1 (a.a. 837-1142), JAK2 (a.a. 828-1132) and JAK3 (a.a. 781-1124) with an N-terminal His tag were expressed using baculovirus in insect cells and purified. The catalytic activity of JAK1, JAK2 or JAK3 was assayed by measuring the phosphorylation of a biotinylated peptide. The phosphorylated peptide was detected by homogenous time resolved fluorescence (HTRF). […] Reactions were carried out at room temperature for 1 hour and then stopped with 20 μL 45 mM EDTA, 300 nM SA-APC, 6 nM Eu-Py20 in assay buffer (Perkin Elmer, Boston, Mass.). Binding to the Europium labeled antibody took place for 40 minutes and HTRF signal was measured on a Fusion plate reader (Perkin Elmer, Boston, Mass.).

[2] = target: T2, human JAK2 (a.a. 828-1132) (Homo sapiens, UniProt O60674); test: In vitro JAK kinase assay (HTRF), JAK2; format: biochemical; conditions: IC50 ratio, selectivity for JAK1 over JAK2, 1 mM ATP
T2 construct: JAK2 (a.a. 828-1132); His tag (N); made in house; host or cells: insect cells (baculovirus)
Protocol: Compounds herein were tested for inhibitory activity of JAK targets according to the following in vitro assay described in Park et al., Analytical Biochemistry 1999, 269, 94-104. The catalytic domains of human JAK1 (a.a. 837-1142), JAK2 (a.a. 828-1132) and JAK3 (a.a. 781-1124) with an N-terminal His tag were expressed using baculovirus in insect cells and purified. The catalytic activity of JAK1, JAK2 or JAK3 was assayed by measuring the phosphorylation of a biotinylated peptide. The phosphorylated peptide was detected by homogenous time resolved fluorescence (HTRF). […] Reactions were carried out at room temperature for 1 hour and then stopped with 20 μL 45 mM EDTA, 300 nM SA-APC, 6 nM Eu-Py20 in assay buffer (Perkin Elmer, Boston, Mass.). Binding to the Europium labeled antibody took place for 40 minutes and HTRF signal was measured on a Fusion plate reader (Perkin Elmer, Boston, Mass.). See Table 2 for data for compounds of the examples as tested by the assay of Example A at 1 mM ATP.

T1 sequence (P23458 849-1154): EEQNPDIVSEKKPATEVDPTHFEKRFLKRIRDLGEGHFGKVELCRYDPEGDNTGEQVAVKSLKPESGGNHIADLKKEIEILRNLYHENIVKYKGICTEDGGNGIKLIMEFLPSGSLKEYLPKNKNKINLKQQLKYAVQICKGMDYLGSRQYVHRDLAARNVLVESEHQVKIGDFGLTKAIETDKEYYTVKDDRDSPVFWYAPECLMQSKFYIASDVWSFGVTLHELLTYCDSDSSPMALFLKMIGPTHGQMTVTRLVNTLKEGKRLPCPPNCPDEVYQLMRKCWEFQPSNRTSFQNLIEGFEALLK
T2 sequence (O60674 828-1132): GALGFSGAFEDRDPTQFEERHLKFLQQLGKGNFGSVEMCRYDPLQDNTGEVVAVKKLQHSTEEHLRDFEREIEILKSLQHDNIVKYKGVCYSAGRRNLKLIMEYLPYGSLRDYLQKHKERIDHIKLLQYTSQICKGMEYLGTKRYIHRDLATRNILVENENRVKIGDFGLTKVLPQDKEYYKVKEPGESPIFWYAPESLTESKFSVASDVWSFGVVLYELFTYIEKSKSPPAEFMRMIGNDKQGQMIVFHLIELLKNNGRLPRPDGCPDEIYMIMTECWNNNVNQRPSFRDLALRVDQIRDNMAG

Row | IC50 [1] [µM] | JAK2/JAK1 [2] | SMILES
1 | < 0.01 | >10 | N#CCC(CN1CCN(C(=O)c2ccc(C#N)cc2F)CC1)n1ccc(-c2ncnc3[nH]ccc23)c1 (single isomer, unassigned) [Example 4, 4-[(4-{3-cyano-2-[3-(7H-pyrrolo[2,3-d]pyrimidin-4-yl)-1H-pyrrol-1-yl]propyl}piperazin-1-yl)carbonyl]-3-fluorobenzonitrile]
2 | < 0.01 | >10 | N#CCC(C1CCN(c2nc3cccnc3o2)C1)n1cc(-c2ncnc3[nH]ccc23)cn1 (single isomer, unassigned) [Example 2, 3-(1-[1,3]oxazolo[5,4-b]pyridin-2-ylpyrrolidin-3-yl)-3-[4-(7H-pyrrolo[2,3-d]pyrimidin-4-yl)-1H-pyrazol-1-yl]propanenitrile]
3 | < 0.01 | >10 | C[C@H](O)CNCc1cc(OC2CCN([C@H]3C[C@](CC#N)(n4cc(-c5ncnc6[nH]ccc56)cn4)C3)CC2)nc(C(F)(F)F)c1 [Example 23, {trans-3-(4-{[4-({[(2S)-2-hydroxypropyl]amino}methyl)-6-(trifluoromethyl)pyridin-2-yl]oxy}piperidin-1-yl)-1-[4-(7H-pyrrolo[2,3-d]pyrimidin-4-yl)-1H-pyrazol-1-yl]cyclobutyl}acetonitrile]
4 | < 0.01 | >10 | N#CCC1(n2cc(-c3ncnc4[nH]ccc34)cn2)CN([C@H]2CC[C@@H](Oc3cc(CN4CC[C@@H](O)C4)cc(C(F)(F)F)n3)CC2)C1 [Example 19, {1-(cis-4-{[4-{[(3R)-3-hydroxypyrrolidin-1-yl]methyl}-6-(trifluoromethyl)pyridin-2-yl]oxy}cyclohexyl)-3-[4-(7H-pyrrolo[2,3-d]pyrimidin-4-yl)-1H-pyrazol-1-yl]azetidin-3-yl}acetonitrile]
5 | < 0.01 | >10 | N#CC[C@]1(n2cc(-c3ncnc4[nH]ccc34)cn2)C[C@H](N2CCN(C(=O)c3ccnc(C(F)(F)F)n3)CC2)C1 [Example 8, [trans-1-[4-(7H-pyrrolo[2,3-d]pyrimidin-4-yl)-1H-pyrazol-1-yl]-3-(4-{[2-(trifluoromethyl)pyrimidin-4-yl]carbonyl}piperazin-1-yl)cyclobutyl]acetonitrile]
6 | < 0.01 | >10 | N#CC[C@]1(n2cc(-c3ncnc4[nH]ccc34)cn2)C[C@H](N2CCC(Oc3cc(CCO)cc(C(F)(F)F)n3)CC2)C1 [Example 24, {trans-3-(4-{[4-(2-hydroxyethyl)-6-(trifluoromethyl)pyridin-2-yl]oxy}piperidin-1-yl)-1-[4-(7H-pyrrolo[2,3-d]pyrimidin-4-yl)-1H-pyrazol-1-yl]cyclobutyl}acetonitrile]
7 | < 0.01 | >10 | N#CCC(CN1CCN(C(=O)c2ccc(C#N)cc2F)CC1)n1cc(-c2ncnc3[nH]ccc23)cn1 (single isomer, unassigned) [Example 3, 4-[(4-{3-cyano-2-[4-(7H-pyrrolo[2,3-d]pyrimidin-4-yl)-1H-pyrazol-1-yl]propyl}piperazin-1-yl)carbonyl]-3-fluorobenzonitrile]
8 | < 0.01 | >10 | N#CC[C@]1(n2cc(-c3ncnc4[nH]ccc34)cn2)C[C@H](N2CCC(Oc3cc(CN4CC(O)C4)cc(C(F)(F)F)n3)CC2)C1 [Example 9, {trans-3-(4-{[4-[(3-hydroxyazetidin-1-yl)methyl]-6-(trifluoromethyl)pyridin-2-yl]oxy}piperidin-1-yl)-1-[4-(7H-pyrrolo[2,3-d]pyrimidin-4-yl)-1H-pyrazol-1-yl]cyclobutyl}acetonitrile]
9 | < 0.01 | >10 | N#CCC1(n2cc(-c3ncnc4[nH]ccc34)cn2)CN(C2CCN(C(=O)Nc3ccc(F)cc3C(F)(F)F)CC2)C1 [Example 6, 4-{3-(Cyanomethyl)-3-[4-(7H-pyrrolo[2,3-d]pyrimidin-4-yl)-1H-pyrazol-1-yl]azetidin-1-yl}-N-[4-fluoro-2-(trifluoromethyl)phenyl]piperidine-1-carboxamide]
10 | < 0.01 | >10 | C[C@@H](CO)NCc1cc(OC2CCN([C@H]3C[C@](CC#N)(n4cc(-c5ncnc6[nH]ccc56)cn4)C3)CC2)nc(C(F)(F)F)c1 [Example 21, {trans-3-(4-{[4-({[(1S)-2-hydroxy-1-methylethyl]amino}methyl)-6-(trifluoromethyl)pyridin-2-yl]oxy}piperidin-1-yl)-1-[4-(7H-pyrrolo[2,3-d]pyrimidin-4-yl)-1H-pyrazol-1-yl]cyclobutyl}acetonitrile]
11 | < 0.01 | >10 | N#CCC1(n2cc(-c3ncnc4[nH]ccc34)cn2)CN(C2CCN(C(=O)c3ccnc(C(F)(F)F)c3F)CC2)C1 [Example 5, {1-{1-[3-Fluoro-2-(trifluoromethyl)isonicotinoyl]piperidin-4-yl}-3-[4-(7H-pyrrolo[2,3-d]pyrimidin-4-yl)-1H-pyrazol-1-yl]azetidin-3-yl}acetonitrile]
12 | < 0.01 | >10 | N#CC[C@]1(n2cc(-c3ncnc4[nH]ccc34)cn2)C[C@H](N2CCC(Oc3cc(CN4CCC[C@H]4CO)cc(C(F)(F)F)n3)CC2)C1 [Example 10, {trans-3-(4-{[4-{[(2S)-2-(hydroxymethyl)pyrrolidin-1-yl]methyl}-6-(trifluoromethyl)pyridin-2-yl]oxy}piperidin-1-yl)-1-[4-(7H-pyrrolo[2,3-d]pyrimidin-4-yl)-1H-pyrazol-1-yl]cyclobutyl}acetonitrile]
13 | < 0.01 | >10 | CC(C)(O)c1cc(O[C@H]2CC[C@@H](N3CC(CC#N)(n4cc(-c5ncnc6[nH]ccc56)cn4)C3)CC2)nc(C(F)(F)F)c1 [Example 18, {1-(cis-4-{[4-(1-hydroxy-1-methylethyl)-6-(trifluoromethyl)pyridin-2-yl]oxy}cyclohexyl)-3-[4-(7H-pyrrolo[2,3-d]pyrimidin-4-yl)-1H-pyrazol-1-yl]azetidin-3-yl}acetonitrile]
14 | < 0.01 | >10 | C[C@H](NC(=O)c1cc(F)c(N2CC(CC#N)(n3cc(-c4ncnc5[nH]ccc45)cn3)C2)cc1F)C(F)(F)F [Example 14, 4-{3-(Cyanomethyl)-3-[4-(7H-pyrrolo[2,3-d]pyrimidin-4-yl)-1H-pyrazol-1-yl]azetidin-1-yl}-2,5-difluoro-N-[(1S)-2,2,2-trifluoro-1-methylethyl]benzamide]
15 | < 0.01 | >10 | N#CC[C@]1(n2cc(-c3ncnc4[nH]ccc34)cn2)C[C@H](N2CCC(Oc3cc(CN4CCC[C@@H]4CO)cc(C(F)(F)F)n3)CC2)C1 [Example 11, {trans-3-(4-{[4-{[(2R)-2-(hydroxymethyl)pyrrolidin-1-yl]methyl}-6-(trifluoromethyl)pyridin-2-yl]oxy}piperidin-1-yl)-1-[4-(7H-pyrrolo[2,3-d]pyrimidin-4-yl)-1H-pyrazol-1-yl]cyclobutyl}acetonitrile]
16 | < 0.01 | >10 | N#CCC(C1CCN(c2cccc(Cl)n2)C1)n1cc(-c2ncnc3[nH]ccc23)cn1 (single isomer, unassigned) [Example 1, 3-[1-(6-chloropyridin-2-yl)pyrrolidin-3-yl]-3-[4-(7H-pyrrolo[2,3-d]pyrimidin-4-yl)-1H-pyrazol-1-yl]propanenitrile]
17 | < 0.01 | >10 | N#CCC1(n2cc(-c3ncnc4[nH]ccc34)cn2)CN([C@H]2CC[C@@H](Oc3cc(CN4CC[C@H](O)C4)cc(C(F)(F)F)n3)CC2)C1 [Example 20, {1-(cis-4-{[4-{[(3S)-3-hydroxypyrrolidin-1-yl]methyl}-6-(trifluoromethyl)pyridin-2-yl]oxy}cyclohexyl)-3-[4-(7H-pyrrolo[2,3-d]pyrimidin-4-yl)-1H-pyrazol-1-yl]azetidin-3-yl}acetonitrile]
18 | < 0.01 | >10 | N#CCC1(n2cc(-c3ncnc4[nH]ccc34)cn2)CN([C@H]2CC[C@@H](Oc3cc(CCO)nc(C(F)(F)F)n3)CC2)C1 [Example 16, {1-(cis-4-{[6-(2-hydroxyethyl)-2-(trifluoromethyl)pyrimidin-4-yl]oxy}cyclohexyl)-3-[4-(7H-pyrrolo[2,3-d]pyrimidin-4-yl)-1H-pyrazol-1-yl]azetidin-3-yl}acetonitrile]
19 | < 0.01 | >10 | C[C@@H](O)CNCc1cc(OC2CCN([C@H]3C[C@](CC#N)(n4cc(-c5ncnc6[nH]ccc56)cn4)C3)CC2)nc(C(F)(F)F)c1 [Example 22, {trans-3-(4-{[4-({[(2R)-2-hydroxypropyl]amino}methyl)-6-(trifluoromethyl)pyridin-2-yl]oxy}piperidin-1-yl)-1-[4-(7H-pyrrolo[2,3-d]pyrimidin-4-yl)-1H-pyrazol-1-yl]cyclobutyl}acetonitrile]
